Test results taken from PubChem BioAssay (NCI).
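The compound was tested at five concentrations on cells cultured in 96-well plates, with a 48-hour exposure period. GI50 is the concentration that inhibits growth by half. TGI marks complete inhibition of growth.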

Legend:
Test in all cases: DTP human tumour cell line panel, 48 h
SF-539 CNS = test system: SF-539 CNS
ACHN renal = test system: ACHN renal
CAKI-1 renal = test system: CAKI-1 renal
U251 CNS = test system: U251 CNS
UO-31 renal = test system: UO-31 renal
T-47D breast = test system: T-47D breast
MALME-3M melanoma = test system: MALME-3M melanoma
HOP-92 NSCLC = test system: HOP-92 NSCLC
TK-10 renal = test system: TK-10 renal
SNB-75 CNS = test system: SNB-75 CNS
A498 renal = test system: A498 renal
SF-268 CNS = test system: SF-268 CNS
HCT-15 colon = test system: HCT-15 colon
MDA-MB-231 breast = test system: MDA-MB-231 breast
EKVX NSCLC = test system: EKVX NSCLC
HCT-116 colon = test system: HCT-116 colon
786-0 renal = test system: 786-0 renal
UACC-257 melanoma = test system: UACC-257 melanoma
RXF 393 renal = test system: RXF 393 renal
CCRF-CEM leukemia = test system: CCRF-CEM leukemia
SK-MEL-28 melanoma = test system: SK-MEL-28 melanoma
K-562 leukemia = test system: K-562 leukemia
RPMI-8226 leukemia = test system: RPMI-8226 leukemia
LOX IMVI melanoma = test system: LOX IMVI melanoma
M14 melanoma = test system: M14 melanoma
DU-145 prostate = test system: DU-145 prostate
KM12 colon = test system: KM12 colon
SW-620 colon = test system: SW-620 colon
NCI/ADR-RES ovarian = test system: NCI/ADR-RES ovarian
SN12C renal = test system: SN12C renal
OVCAR-3 ovarian = test system: OVCAR-3 ovarian
HOP-62 NSCLC = test system: HOP-62 NSCLC
SK-MEL-5 melanoma = test system: SK-MEL-5 melanoma
UACC-62 melanoma = test system: UACC-62 melanoma
SR leukemia = test system: SR leukemia
SK-MEL-2 melanoma = test system: SK-MEL-2 melanoma
BT-549 breast = test system: BT-549 breast
SK-OV-3 ovarian = test system: SK-OV-3 ovarian
NCI-H460 lung = test system: NCI-H460 lung
NCI-H522 lung = test system: NCI-H522 lung
NCI-H226 lung = test system: NCI-H226 lung
MDA-MB-468 breast = test system: MDA-MB-468 breast
IGROV1 ovarian = test system: IGROV1 ovarian
A549 NSCLC = test system: A549 NSCLC
NCI-H23 lung = test system: NCI-H23 lung
HL-60(TB) leukemia = test system: HL-60(TB) leukemia
OVCAR-4 ovarian = test system: OVCAR-4 ovarian
SF-295 CNS = test system: SF-295 CNS
OVCAR-5 ovarian = test system: OVCAR-5 ovarian
MDA-MB-435 = test system: MDA-MB-435
MCF7 breast = test system: MCF7 breast
PC-3 prostate = test system: PC-3 prostate
HCC-2998 colon = test system: HCC-2998 colon
COLO 205 colon = test system: COLO 205 colon
MOLT-4 leukemia = test system: MOLT-4 leukemia
OVCAR-8 ovarian = test system: OVCAR-8 ovarian
SNB-19 CNS = test system: SNB-19 CNS
HT29 colon = test system: HT29 colon
HS 578T breast = test system: HS 578T breast

## CN(CCO)c1oc(-c2ccccc2)nc1[P+](c1ccccc1)(c1ccccc1)c1ccccc1
SF-539 CNS
  GI50: 2.74 µM
  TGI: 12.1 µM
ACHN renal
  GI50: 8.36 µM
  TGI: 41.6 µM
CAKI-1 renal
  GI50: 4 µM
  TGI: 24.9 µM
U251 CNS
  GI50: 2.31 µM
  TGI: 13.6 µM
UO-31 renal
  GI50: 19 µM
  TGI: 54.3 µM
T-47D breast
  GI50: 0.517 µM
  TGI: 11.2 µM
MALME-3M melanoma
  GI50: 1.6 µM
  TGI: 9.14 µM
HOP-92 NSCLC
  GI50: 1.22 µM
  TGI: 4.9 µM
TK-10 renal
  GI50: 3.5 µM
  TGI: 15.2 µM
SNB-75 CNS
  GI50: 1.28 µM
  TGI: 5.89 µM
A498 renal
  GI50: 6.82 µM
  TGI: 22.8 µM
SF-268 CNS
  GI50: 3.27 µM
  TGI: 14 µM
HCT-15 colon
  GI50: 13.5 µM
  TGI: 31.2 µM
MDA-MB-231 breast
  GI50: 1.36 µM
  TGI: 4.18 µM
EKVX NSCLC
  GI50: 2.35 µM
  TGI: 13.4 µM
HCT-116 colon
  GI50: 2.84 µM
  TGI: 12 µM
786-0 renal
  GI50: 5.31 µM
  TGI: 20.8 µM
UACC-257 melanoma
  GI50: 1.95 µM
  TGI: 9.63 µM
RXF 393 renal
  GI50: 1.94 µM
  TGI: 9.64 µM
CCRF-CEM leukemia
  GI50: 2.39 µM
  TGI: 12.2 µM
SK-MEL-28 melanoma
  GI50: 1.54 µM
  TGI: 12.7 µM
K-562 leukemia
  GI50: 1.01 µM
  TGI: 13.6 µM
RPMI-8226 leukemia
  GI50: 0.393 µM
  TGI: 4.03 µM
LOX IMVI melanoma
  GI50: 2.21 µM
  TGI: 10.1 µM
M14 melanoma
  GI50: 2.81 µM
  TGI: 12.4 µM
DU-145 prostate
  GI50: 3.26 µM
  TGI: 13.7 µM
KM12 colon
  GI50: 2.12 µM
  TGI: 10.2 µM
SW-620 colon
  GI50: 2.9 µM
  TGI: 23.1 µM
NCI/ADR-RES ovarian
  GI50: > 100 µM
  TGI: > 100 µM
SN12C renal
  GI50: 2.4 µM
  TGI: 6.88 µM
OVCAR-3 ovarian
  GI50: 1.08 µM
  TGI: 12.6 µM
HOP-62 NSCLC
  GI50: 3.49 µM
  TGI: 13 µM
SK-MEL-5 melanoma
  GI50: 1.15 µM
  TGI: 2.52 µM
UACC-62 melanoma
  GI50: 1.23 µM
  TGI: 5.97 µM
SR leukemia
  GI50: 1.64 µM
  TGI: 12.4 µM
SK-MEL-2 melanoma
  GI50: 1.96 µM
  TGI: 5.43 µM
BT-549 breast
  GI50: 1.78 µM
  TGI: 7.08 µM
SK-OV-3 ovarian
  GI50: 2.98 µM
  TGI: 8.21 µM
NCI-H460 lung
  GI50: 2.74 µM
  TGI: 12.4 µM
NCI-H522 lung
  GI50: 0.854 µM
  TGI: 4.05 µM
NCI-H226 lung
  GI50: 2.73 µM
  TGI: 10.9 µM
MDA-MB-468 breast
  GI50: 0.285 µM
  TGI: 1.37 µM
IGROV1 ovarian
  GI50: 0.802 µM
  TGI: 7.45 µM
A549 NSCLC
  GI50: 5.22 µM
  TGI: 34.6 µM
NCI-H23 lung
  GI50: 2.27 µM
  TGI: 7.25 µM
HL-60(TB) leukemia
  GI50: 0.535 µM
  TGI: 2.73 µM
OVCAR-4 ovarian
  GI50: 2.79 µM
  TGI: 27.1 µM
SF-295 CNS
  GI50: 2.62 µM
  TGI: 9.92 µM
OVCAR-5 ovarian
  GI50: 2.27 µM
  TGI: 8.21 µM
MDA-MB-435
  GI50: 1.6 µM
  TGI: 9.66 µM
MCF7 breast
  GI50: 1.21 µM
  TGI: 6.84 µM
PC-3 prostate
  GI50: 1.75 µM
  TGI: 10.4 µM
HCC-2998 colon
  GI50: 1.82 µM
  TGI: 12.4 µM
COLO 205 colon
  GI50: 1.46 µM
  TGI: 3.28 µM
MOLT-4 leukemia
  GI50: 2.77 µM
  TGI: 11.8 µM
OVCAR-8 ovarian
  GI50: 3.33 µM
  TGI: 16.3 µM
SNB-19 CNS
  GI50: 2.01 µM
  TGI: 7.95 µM
HT29 colon
  GI50: 2.82 µM
  TGI: 21.2 µM
HS 578T breast
  GI50: 2.39 µM
  TGI: 9.08 µM

## FC(F)(F)c1cc2c(Cl)ncnc2n1CCC1CCOCC1
SF-539 CNS
  GI50: 13.6 µM
  TGI: 27.7 µM
ACHN renal
  GI50: 11.1 µM
  TGI: 26 µM
CAKI-1 renal
  GI50: 14.6 µM
  TGI: 30.2 µM
U251 CNS
  GI50: 2.07 µM
  TGI: 5.58 µM
UO-31 renal
  GI50: 1.79 µM
  TGI: 3.79 µM
T-47D breast
  GI50: 20.2 µM
  TGI: 59.6 µM
MALME-3M melanoma
  GI50: 15.2 µM
  TGI: 29.2 µM
HOP-92 NSCLC
  GI50: 13.9 µM
  TGI: 32.3 µM
TK-10 renal
  GI50: 17.4 µM
  TGI: 36.7 µM
SNB-75 CNS
  GI50: 3.09 µM
  TGI: 15.1 µM
A498 renal
  GI50: 16.2 µM
  TGI: 29.9 µM
SF-268 CNS
  GI50: 2.45 µM
  TGI: 7.28 µM
HCT-15 colon
  GI50: 2.93 µM
  TGI: 11 µM
MDA-MB-231 breast
  GI50: 3.9 µM
  TGI: 14 µM
EKVX NSCLC
  GI50: 12.6 µM
  TGI: 28.5 µM
HCT-116 colon
  GI50: 2.36 µM
  TGI: 6.48 µM
786-0 renal
  GI50: 16.1 µM
  TGI: 32.4 µM
UACC-257 melanoma
  GI50: 3.56 µM
  TGI: 15.7 µM
RXF 393 renal
  GI50: 8.75 µM
  TGI: 22.1 µM
CCRF-CEM leukemia
  GI50: 1.41 µM
  TGI: 4.56 µM
SK-MEL-28 melanoma
  GI50: 2.6 µM
  TGI: 6 µM
K-562 leukemia
  GI50: 2.84 µM
  TGI: 8.66 µM
RPMI-8226 leukemia
  GI50: 14.6 µM
  TGI: 41.4 µM
LOX IMVI melanoma
  GI50: 1.63 µM
  TGI: 2.99 µM
M14 melanoma
  GI50: 3.76 µM
  TGI: 16.2 µM
DU-145 prostate
  GI50: 4.35 µM
  TGI: 15.1 µM
KM12 colon
  GI50: 16.3 µM
  TGI: 33.9 µM
SW-620 colon
  GI50: 11.9 µM
  TGI: 28.5 µM
NCI/ADR-RES ovarian
  GI50: 17 µM
  TGI: 35.1 µM
SN12C renal
  GI50: 6.67 µM
  TGI: 19.8 µM
OVCAR-3 ovarian
  GI50: 12.2 µM
  TGI: 27.4 µM
HOP-62 NSCLC
  GI50: 17 µM
  TGI: 35.1 µM
SK-MEL-5 melanoma
  GI50: 2.79 µM
  TGI: 9.23 µM
UACC-62 melanoma
  GI50: 4.23 µM
  TGI: 15.7 µM
SR leukemia
  GI50: 2.05 µM
  TGI: 5.32 µM
SK-MEL-2 melanoma
  GI50: 13.2 µM
  TGI: 28.2 µM
BT-549 breast
  GI50: 10.2 µM
  TGI: 22.6 µM
SK-OV-3 ovarian
  GI50: 17.3 µM
  TGI: 33.3 µM
NCI-H460 lung
  GI50: 2.42 µM
  TGI: 5.66 µM
NCI-H522 lung
  GI50: 1.68 µM
  TGI: 3.68 µM
NCI-H226 lung
  GI50: 13.9 µM
  TGI: 28.5 µM
MDA-MB-468 breast
  GI50: 1.66 µM
  TGI: 3.44 µM
IGROV1 ovarian
  GI50: 1.78 µM
  TGI: 3.49 µM
A549 NSCLC
  GI50: 22 µM
  TGI: 56.9 µM
NCI-H23 lung
  GI50: 2.59 µM
  TGI: 10 µM
HL-60(TB) leukemia
  GI50: 2.21 µM
  TGI: 5.07 µM
OVCAR-4 ovarian
  GI50: 18.5 µM
  TGI: 50.1 µM
SF-295 CNS
  GI50: 14 µM
  TGI: 27.9 µM
OVCAR-5 ovarian
  GI50: 24.1 µM
  TGI: 81.9 µM
MDA-MB-435
  GI50: 5.01 µM
  TGI: 18.3 µM
MCF7 breast
  GI50: 11.5 µM
  TGI: 36.4 µM
PC-3 prostate
  GI50: 2.97 µM
  TGI: 11.3 µM
HCC-2998 colon
  GI50: 1.63 µM
  TGI: 3.03 µM
COLO 205 colon
  GI50: 16.4 µM
  TGI: 37.2 µM
MOLT-4 leukemia
  GI50: 2.35 µM
  TGI: 5.45 µM
OVCAR-8 ovarian
  GI50: 2.44 µM
  TGI: 7.33 µM
SNB-19 CNS
  GI50: 5.21 µM
  TGI: 18.1 µM
HT29 colon
  GI50: 13.9 µM
  TGI: 44.2 µM
HS 578T breast
  GI50: 12.1 µM
  TGI: 45.5 µM
